According to PubChem BioAssay AID504481 (NMMLSC, 2011):
Activity calls are given as the source filed them.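 The calls were made as follows: active = fold change below 0.65 in a panel strain, matching the primary screen cutoff; inactive = the rest.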

Legend:
Assay in all cases: GFP reporter expression in transducer deletion yeast, mechanism study for yeast TOR pathway modulator project, S. cerevisiae, transducer mutant strains, GFP-tagged proteins (AID 504481);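 also: 1 = DMSO wells as ratio of mean channel GFP fluorescence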
Conditions in all cases: S. cerevisiae transducer mutants, GFP-fusion expression, flow cytometry, 3 h
[1] = tested on: BY4741
[2] = tested on: YBR084C-A
[3] = tested on: YCL025C
[4] = tested on: YCR005C
[5] = tested on: YKL103C
[6] = tested on: YNL142W

Measured: fold change

O=[N+]([O-])c1ccc(S(=O)(=O)c2cccc(C(F)(F)F)c2)nc1
inactive: [1] 1.08 | [2] 0.793 | [3] 0.901 | [4] 1.32 | [5] 1.49 | [6] 1.26

O=C(NC(=S)NNC(=O)c1cnccn1)c1ccc(F)cc1
inactive: [1] 1.1 | [2] 0.875 | [3] 1.02 | [4] 0.816 | [6] 1.23
active: [5] 1.54

CN1CCN(C(c2ccc(C(F)(F)F)cc2)c2ccc3cccnc3c2O)CC1 (centres undefined)
inactive: [1] 0.87 | [2] 0.878 | [3] 0.972 | [4] 0.725 | [5] 1.35 | [6] 0.91

O=C1ON=C(c2ccccc2)/C1=C/c1ccco1
inactive: [1] 1.32 | [2] 1.02 | [3] 0.866 | [4] 1.4 | [5] 1.37 | [6] 1.09

CCOC(=O)c1c(C)oc2c1c(C(c1cccnc1)N1CCOCC1)c(O)c1ccccc12 (centres undefined)
inactive: [1] 1.18 | [2] 0.759 | [3] 0.907 | [4] 1.27 | [5] 1.36 | [6] 1.26

COc1ccc(/C=C/C(=O)NC(=S)NNC(=O)c2cnccn2)cc1
inactive: [1] 1.19 | [2] 0.936 | [3] 1.01 | [4] 1.05 | [6] 1.27
active: [5] 1.51

Cc1ccc(S(=O)(=O)c2ccc([N+](=O)[O-])cn2)cc1
active: [4] 1.62 | [5] 1.65
inactive: [1] 1.05 | [2] 0.894 | [3] 1.17 | [6] 1.36

Clc1ccc(N=c2ssnc2Cl)cc1
inactive: [1] 1.08 | [2] 0.99 | [3] 0.846 | [4] 0.981 | [5] 1.45 | [6] 0.957

Cc1ccc(/C=C2/C(=O)ON=C2c2ccccc2)o1
inactive: [1] 1.42 | [2] 0.942 | [3] 0.837 | [4] 1.47 | [6] 1.23
active: [5] 1.61

Cc1ccc(C(c2cc(Cl)c3cccnc3c2O)N2CCN(C)CC2)cc1 (centres undefined)
inactive: [1] 0.978 | [2] 1.03 | [3] 1.06 | [4] 0.889 | [6] 1.03
active: [5] 1.8

O=C(OCC(=O)N1CCN(C(=O)c2ccco2)CC1)c1cc(-c2cccc(Br)c2)nc2ccccc12
inactive: [1] 0.913 | [2] 0.779 | [3] 1.14 | [4] 1.29 | [5] 1.33 | [6] 1.05

CC(Oc1ccc(Cl)cc1)C(=O)NNC(=S)NC(=O)c1ccco1 (centres undefined)
inactive: [1] 1.49 | [2] 1.09 | [3] 0.906 | [4] 1.21 | [6] 1.33
active: [5] 2.14

O=C(OCn1ncc(Br)c(Br)c1=O)c1c(F)cccc1F
inactive: [1] 0.865 | [2] 0.936 | [3] 0.921 | [4] 1.48 | [5] 1.31 | [6] 0.911

CC1=NN(c2ccccc2)C(=O)C1C(c1ccccc1[N+](=O)[O-])C(C#N)C#N (centres undefined)
active: [5] 1.82
inactive: [1] 1.12 | [2] 1.09 | [3] 0.965 | [4] 1 | [6] 1.1

O=C1ON=C(c2ccccc2)/C1=C\c1ccco1
active: [5] 1.95
inactive: [1] 0.924 | [2] 0.921 | [3] 1 | [4] 1.28 | [6] 1.13

CC(C)(C)C(=O)C(Cl)C(=O)Nc1ccccc1 (centres undefined)
active: [5] 2.24
inactive: [1] 1 | [2] 0.877 | [3] 1.11 | [4] 1.44 | [6] 1.36

O=[N+]([O-])c1cc(S(=O)(=O)C(F)(F)F)ccc1Sc1nc2ccccc2s1
inactive: [1] 1.03 | [2] 1.03 | [3] 1.09 | [4] 1.09 | [6] 1.02
active: [5] 2.03

O=S(=O)(CCN(CCS(=O)(=O)C(F)(F)F)CC1CCCO1)C(F)(F)F (centres undefined)
inactive: [1] 0.957 | [2] 0.989 | [3] 0.948 | [4] 1.23 | [6] 0.965
active: [5] 1.89

O=C(Oc1c(Cl)cc(Cl)c2cccnc12)c1cccc([N+](=O)[O-])c1
inactive: [1] 0.946 | [2] 1.18 | [3] 1.16 | [4] 1.03 | [6] 1.08
active: [5] 1.56

O=[N+]([O-])c1cc(Cl)c2cccnc2c1O
inactive: [1] 0.935 | [2] 1.05 | [3] 1.27 | [4] 0.922 | [5] 1.43 | [6] 1.14

CO[C@H]1C[C@@H]2CC[C@@H](C)[C@@](O)(O2)C(=O)C(=O)N2CCCC[C@H]2C(=O)O[C@H]([C@H](C)C[C@@H]2CC[C@@H](O)[C@H](OC)C2)CC(=O)[C@H](C)/C=C(\C)[C@@H](O)[C@@H](OC)C(=O)[C@H](C)C[C@H](C)/C=C/C=C/C=C/1C
inactive: [1] 1.12
active: [2] 0.616 | [3] 2.29 | [4] 3.51 | [5] 2.54 | [6] 12.2

CSC1=NS(=O)(=O)c2c(C)nn(C)c2S1
inactive: [1] 0.902 | [2] 0.857 | [3] 0.969 | [4] 0.841 | [5] 1.3 | [6] 0.896

CCCOc1ccc(C(=O)NNC(=S)NC(=O)CC)cc1
inactive: [1] 1.77 | [2] 1.22 | [3] 1.05 | [4] 1.21 | [6] 1.17
active: [5] 2.42

CCSc1nnc(NC(=O)c2ccccn2)s1
inactive: [1] 0.946 | [2] 0.968 | [3] 0.982 | [4] 0.897 | [5] 1.13 | [6] 1.05
